System: 521955-158-R2-J5-PDC complex spheroids, viability
Assay: Anticancer human tumor 521955-158-R2-J5-PDC patient-derived pancreatic carcinoma cell line growth inhibition [RAS]
Conditions: for IC50: curve of first compound; for viability, T/C: stronger effect = lower value; active = viability on the fitted dose curve at most 10% of control; inactive = the rest
In short: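 Agents were tested in combination matrices in half-log decrements from a top concentration at or near clinical Cmax (10 microM if undetermined). Targets were multi-cell spheroids of tumour lines plus HUVEC and MSC stromal cells.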

[1] = second compound 0.000949 µM, first compound 0.0316 µM
[2] = second compound 0.000949 µM, first compound 0.1 µM
[3] = second compound 0.000949 µM, first compound 0.316 µM
[4] = second compound 0.000949 µM, first compound 1 µM
[5] = second compound 0.000949 µM, first compound 3.16 µM
[6] = second compound 0.000949 µM, first compound 10 µM
[7] = second compound 0.003 µM, first compound 0.0316 µM
[8] = second compound 0.003 µM, first compound 0.1 µM
[9] = second compound 0.003 µM, first compound 0.316 µM
[10] = second compound 0.003 µM, first compound 1 µM
[11] = second compound 0.003 µM, first compound 3.16 µM
[12] = second compound 0.003 µM, first compound 10 µM
[13] = second compound 0.00949 µM, first compound 0.0316 µM
[14] = second compound 0.00949 µM, first compound 0.1 µM
[15] = second compound 0.00949 µM, first compound 0.316 µM
[16] = second compound 0.00949 µM, first compound 1 µM
[17] = second compound 0.00949 µM, first compound 3.16 µM
[18] = second compound 0.00949 µM, first compound 10 µM
[19] = second compound 0.03 µM, first compound 0.0316 µM
[20] = second compound 0.03 µM, first compound 0.1 µM
[21] = second compound 0.03 µM, first compound 0.316 µM
[22] = second compound 0.03 µM, first compound 1 µM
[23] = second compound 0.03 µM, first compound 3.16 µM
[24] = second compound 0.03 µM, first compound 10 µM
[25] = second compound 0.0949 µM, first compound 0.0316 µM
[26] = second compound 0.0949 µM, first compound 0.1 µM
[27] = second compound 0.0949 µM, first compound 0.316 µM
[28] = second compound 0.0949 µM, first compound 1 µM
[29] = second compound 0.0949 µM, first compound 3.16 µM
[30] = second compound 0.0949 µM, first compound 10 µM
[31] = second compound 0.3 µM, first compound 0.0316 µM
[32] = second compound 0.3 µM, first compound 0.1 µM
[33] = second compound 0.3 µM, first compound 0.316 µM
[34] = second compound 0.3 µM, first compound 1 µM
[35] = second compound 0.3 µM, first compound 3.16 µM
[36] = second compound 0.3 µM, first compound 10 µM
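Also: compound exposure lasted seven days before the viability read.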
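For viability, T/C in this document: spheroids also contain HUVEC endothelial cells and mesenchymal stem cells as stroma.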

CC(Nc1ccc2c(c1)OCCn1cc(N3C(=O)OCC3C(F)F)nc1-2)C(N)=O (stereo unspecified) + CCn1c(-c2cccnc2C(C)OC)c2c3cc(ccc31)N1CCOC(CC(NC(=O)C(C(C)C)N(C)C(=O)C3(F)CCN(C(=O)C#CC(C)(C)N(C)C)CC3)C(=O)N3CCCC(N3)C(=O)OCC(C)(C)C2)C1
inactive: viability, T/C [1] 63.1% | viability, T/C [2] 46.7% | viability, T/C [3] 34.7% | viability, T/C [4] 27% | viability, T/C [5] 83.6% | viability, T/C [6] 17.9% | viability, T/C [7] 59.7% | viability, T/C [8] 36.6% | viability, T/C [9] 32.3% | viability, T/C [10] 23.8% | viability, T/C [11] 93.3% | viability, T/C [12] 16.3% | viability, T/C [13] 41.8% | viability, T/C [14] 46.3% | viability, T/C [15] 31.9% | viability, T/C [16] 26.3% | viability, T/C [17] 108% | viability, T/C [18] 15.6% | viability, T/C [19] 49.8% | viability, T/C [20] 44.2% | viability, T/C [21] 33.9% | viability, T/C [22] 30.8% | viability, T/C [23] 70.1% | viability, T/C [24] 13.9% | viability, T/C [25] 39.1% | viability, T/C [26] 33.6% | viability, T/C [27] 28% | viability, T/C [28] 22.4% | viability, T/C [29] 74.8% | viability, T/C [30] 13.6% | viability, T/C [31] 39.1% | viability, T/C [32] 32.6% | viability, T/C [33] 27.3% | viability, T/C [34] 24.9% | viability, T/C [35] 53.5% | viability, T/C [36] 12.8%
< 0.0316 µM: IC50 (second compound 0.003 µM) | IC50 (second compound 0.00949 µM) | IC50 (second compound 0.03 µM) | IC50 (second compound 0.0949 µM) | IC50 (second compound 0.3 µM)
0.131 µM: IC50 (second compound 0.000949 µM)

CC1(O)CCCC1n1c(=O)c(C(F)F)cc2cnc(NC3CCN(S(C)(=O)=O)CC3)nc21 (stereo unspecified) + CCn1c(-c2cc(N3CCN(C)CC3)cnc2C(C)OC)c2c3cc(ccc31)-c1csc(n1)CC(NC(=O)C1CC1C)C(=O)N1CCCC(N1)C(=O)OCC(C)(C)C2
active: viability, T/C [6] 9%
0.0316 µM: IC50 (second compound 0.000949 µM)
inactive: viability, T/C [1] 33% | viability, T/C [2] 39% | viability, T/C [3] 36.6% | viability, T/C [4] 42.8% | viability, T/C [5] 63.2% | viability, T/C [7] 35.6% | viability, T/C [8] 34.5% | viability, T/C [9] 37.5% | viability, T/C [10] 43.1% | viability, T/C [11] 50.5% | viability, T/C [12] 10.9% | viability, T/C [13] 29.2% | viability, T/C [14] 29.9% | viability, T/C [15] 33.2% | viability, T/C [16] 32.6% | viability, T/C [17] 49.6% | viability, T/C [18] 9.41% | viability, T/C [19] 18.9% | viability, T/C [20] 20.1% | viability, T/C [21] 20.8% | viability, T/C [22] 24.8% | viability, T/C [23] 28.9% | viability, T/C [24] 6.82% | viability, T/C [25] 10.6% | viability, T/C [26] 13.1% | viability, T/C [27] 13.9% | viability, T/C [28] 16.2% | viability, T/C [29] 21.5% | viability, T/C [30] 7% | viability, T/C [31] 10.8% | viability, T/C [32] 11.3% | viability, T/C [33] 11.2% | viability, T/C [34] 13.9% | viability, T/C [35] 19.1% | viability, T/C [36] 6.07%
< 0.0316 µM: IC50 (second compound 0.003 µM) | IC50 (second compound 0.00949 µM) | IC50 (second compound 0.03 µM) | IC50 (second compound 0.0949 µM) | IC50 (second compound 0.3 µM)

CCC(CC)c1cc(NC2CCC(N)C2)n2nccc2n1 (stereo unspecified) + CCn1c(-c2cccnc2C(C)OC)c2c3cc(ccc31)N1CCOC(CC(NC(=O)C(C(C)C)N(C)C(=O)C3(F)CCN(C(=O)C#CC(C)(C)N(C)C)CC3)C(=O)N3CCCC(N3)C(=O)OCC(C)(C)C2)C1
1.73 µM: IC50 (second compound 0.0949 µM)
1.91 µM: IC50 (second compound 0.003 µM)
inactive: viability, T/C [1] 93.9% | viability, T/C [2] 92.6% | viability, T/C [3] 104% | viability, T/C [4] 122% | viability, T/C [7] 94.6% | viability, T/C [8] 108% | viability, T/C [9] 106% | viability, T/C [10] 116% | viability, T/C [13] 113% | viability, T/C [14] 97.7% | viability, T/C [15] 116% | viability, T/C [16] 117% | viability, T/C [19] 99.2% | viability, T/C [20] 101% | viability, T/C [21] 105% | viability, T/C [22] 117% | viability, T/C [25] 83.1% | viability, T/C [26] 75.6% | viability, T/C [27] 97.4% | viability, T/C [28] 100% | viability, T/C [31] 84.9% | viability, T/C [32] 75.4% | viability, T/C [33] 88.1% | viability, T/C [34] 88.6%
1.96 µM: IC50 (second compound 0.00949 µM)
active: viability, T/C [5] 6.03% | viability, T/C [6] 9.22% | viability, T/C [11] 5.99% | viability, T/C [12] 6.76% | viability, T/C [17] 7.29% | viability, T/C [18] 6.73% | viability, T/C [23] 8.41% | viability, T/C [24] 5.64% | viability, T/C [29] 6.48% | viability, T/C [30] 6.71% | viability, T/C [35] 9.96% | viability, T/C [36] 5.87%
1.93 µM: IC50 (second compound 0.03 µM)
1.9 µM: IC50 (second compound 0.000949 µM)
1.7 µM: IC50 (second compound 0.3 µM)
